In the supplement of paper PMC11061612:

How the values were obtained:
Test in all cases: combination Emax (second highest fraction inhibited in the dose matrix, 72 h); higher = more inhibition; extreme values may be limits of the assay
[1] = test system: ST486 (Burkitt's Lymphoma)
How it was run: (§1)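 After 24 hours at 37°C and 5% CO2 in 1536-well plates, cells in DMEM/F12 or RPMI plus 10% FBS received two-drug dose matrices for 72 hours. Viability came from CellTiter-Glo 2.0 luminescence and was scaled as inhibition, anchored at 0 by vehicle wells and at 1 by blank wells. Combination Emax is taken as the second-highest inhibition in the matrix, and Bliss excess as the observed combination effect less EA + EB − EA·EB, with EA and EB the single-agent effects.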

[2] = test system: KMS-12-BM (Plasma Cell Myeloma)
How it was run: as §1

[3] = test system: SU-DHL-5 (B-Cell Non-Hodgkin's Lymphoma)
How it was run: as §1

[4] = test system: MN-60 (B-Lymphoblastic Leukemia)
How it was run: as §1

[5] = test system: MOLM-13 (Acute Myeloid Leukemia)
How it was run: as §1

[6] = test system: MOG-G-CCM (Low Grade Glioma)
How it was run: as §1

G-361 (Melanoma) = test system: G-361 (Melanoma)
How it was run: as §1

[7] = test system: COR-L279 (Small Cell Lung Carcinoma)
How it was run: as §1

M059J (Glioblastoma) = test system: M059J (Glioblastoma)
How it was run: as §1

[8] = test system: DMS-114 (Small Cell Lung Carcinoma)
How it was run: as §1

[9] = test system: DAN-G (Pancreatic Carcinoma)
How it was run: as §1

[10] = test system: CW-2 (Colorectal Carcinoma)
How it was run: as §1

[11] = test system: PC-3 (Prostate Carcinoma)
How it was run: as §1

[12] = test system: NCI-H929 (Plasma Cell Myeloma)
How it was run: as §1

[13] = test system: NCI-H661 (Non-Small Cell Lung Carcinoma)
How it was run: as §1

[14] = test system: NCI-H526 (Small Cell Lung Carcinoma)
How it was run: as §1

NCI-H2731 (Mesothelioma) = test system: NCI-H2731 (Mesothelioma)
How it was run: as §1

[15] = test system: NCI-H3122 (Lung Adenocarcinoma)
How it was run: as §1

[16] = test system: NCCIT (Other Solid Carcinomas)
How it was run: as §1

[17] = test system: SK-GT-2 (Gastric Carcinoma)
How it was run: as §1

Structure (SMILES) | combination Emax [1] | combination Emax [2] | combination Emax [3] | combination Emax [4] | combination Emax [5] | combination Emax [6] | combination Emax (G-361 (Melanoma)) | combination Emax [7] | combination Emax (M059J (Glioblastoma)) | combination Emax [8] | combination Emax [9] | combination Emax [10] | combination Emax [11] | combination Emax [12] | combination Emax [13] | combination Emax [14] | combination Emax (NCI-H2731 (Mesothelioma)) | combination Emax [15] | combination Emax [16] | combination Emax [17]
NC1(C(=O)N[C@@H](CCO)c2ccc(Cl)cc2)CCN(c2ncnc3[nH]ccc23)CC1 [Capivasertib] + CC(=O)c1c(C)c2cnc(Nc3ccc(N4CCNCC4)cn3)nc2n(C2CCCC2)c1=O [Palbociclib] (first compound max 10 µM, 7x7, partner max 10 µM) | 0.549 | 0.734 | 1 | 0.583 | 0.98 | 0.501 | 0.443 | 0.688 | 0.338 | 0.284 | 0.355 | 0.445 | 0.376 | 1 | 0.368 | 0.15 | 0.361 | 0.701 | 0.537 | 0.248
NC1(C(=O)N[C@@H](CCO)c2ccc(Cl)cc2)CCN(c2ncnc3[nH]ccc23)CC1 [Capivasertib] + CC(C)n1c(=O)n(C)c2cnc3cc(F)c(-c4ccc(OCCCN5CCCCC5)nc4)cc3c21 [AZD1390] (first compound max 10 µM, 7x7, partner max 0.3 µM) | 0.215 | 0.415 | 1 | 0.44 | 0.739 | 0.485 | 0.282 | 0.602 | 0.512 | 0.442 | 0.292 | 0.274 | 0.322 | 1 | 0.245 | 0.282 | 0.265 | 0.509 | 0.54 | 0.338
NC1(C(=O)N[C@@H](CCO)c2ccc(Cl)cc2)CCN(c2ncnc3[nH]ccc23)CC1 [Capivasertib] + CCN(CCO)CCCOc1ccc2c(Nc3cc(CC(=O)Nc4cccc(F)c4)[nH]n3)ncnc2c1 [AZD2811] (first compound max 10 µM, 7x7, partner max 1 µM) | 0.834 | 0.522 | 1 | 0.336 | 0.993 | 0.67 | 0.46 | 0.935 | 0.517 | 0.456 | 0.43 | 0.288 | 0.401 | 1 | 0.36 | 0.588 | 0.398 | 0.62 | 0.624 | 0.417
NC1(C(=O)N[C@@H](CCO)c2ccc(Cl)cc2)CCN(c2ncnc3[nH]ccc23)CC1 [Capivasertib] + COc1nnc2ccc(N3CCC(c4ccc(OCCN5CCN(C)C(=O)[C@H]5C)cc4)CC3)nn12 [AZD5153] (first compound max 10 µM, 7x7, partner max 1 µM) | 0.91 | 1 | 1 | 0.848 | 1 | 0.834 | 0.891 | 1 | 0.682 | 0.529 | 0.466 | 0.559 | 0.45 | 1 | 0.454 | 0.983 | 0.588 | 0.738 | 0.873 | 0.362
NC1(C(=O)N[C@@H](CCO)c2ccc(Cl)cc2)CCN(c2ncnc3[nH]ccc23)CC1 [Capivasertib] + C[C@@H]1COCCN1C2=NC(=NC(=C2)C3(CC3)[S@](=N)(=O)C)C4=C5C=CNC5=NC=C4 [AZD6738] (first compound max 10 µM, 7x7, partner max 10 µM) | 0.881 | 0.823 | 1 | 0.715 | 0.982 | 0.787 | 0.614 | 0.853 | 0.622 | 0.623 | 0.721 | 0.542 | 0.593 | 1 | 0.569 | 0.779 | 0.514 | 0.727 | 0.66 | 0.601
NC1(C(=O)N[C@@H](CCO)c2ccc(Cl)cc2)CCN(c2ncnc3[nH]ccc23)CC1 [Capivasertib] + Cn1cnc2c(F)c(Nc3ccc(Br)cc3Cl)c(C(=O)NOCCO)cc21 [Selumetinib] (first compound max 10 µM, 7x7, partner max 10 µM) | 0.559 | 0.427 | 1 | 0.188 | 0.986 | 0.548 | 0.83 | 0.551 | 0.415 | 0.456 | 0.65 | 0.482 | 0.258 | 1 | 0.427 | 0.249 | 0.306 | 0.882 | 0.55 | 0.497
Cc1nc(Nc2ncc(C(=O)Nc3c(C)cccc3Cl)s2)cc(N2CCN(CCO)CC2)n1 [Dasatinib] + CC(=O)Nc1cccc(-n2c(=O)n(C3CC3)c(=O)c3c(Nc4ccc(I)cc4F)n(C)c(=O)c(C)c32)c1 [Trametinib] (first compound max 2 µM, 7x7, partner max 1 µM) | 0.611 | 0.396 | 1 | 0.27 | 0.955 | 0.741 | 0.753 | 0.254 | 0.492 | 0.326 | 0.962 | 0.551 | 0.243 | 0.992 | 0.502 | 0.0355 | 0.361 | 0.705 | 0.366 | 0.545
COc1cccc2c1C(=O)c1c(O)c3c(c(O)c1C2=O)C[C@@](O)(C(=O)CO)C[C@@H]3O[C@H]1C[C@H](N)[C@H](O)[C@H](C)O1 [Doxorubicin] + Cc1cc2ncnn2cc1Nc1ncc2c(n1)n(C1CCOCC1)c(=O)n2C [AZD7648] (first compound max 1 µM, 7x7, partner max 10 µM) | 0.955 | 0.84 | 1 | 0.833 | 1 | 0.663 | 0.926 | 1 | 0.829 | 0.551 | 0.735 | 0.231 | 0.431 | 0.994 | 0.753 | 0.988 | 0.715 | 0.921 | 0.825 | 0.406
COc1cc2ncnc(Nc3ccc(F)c(Cl)c3)c2cc1OCCCN1CCOCC1 [Gefitinib] + CC(C)n1c(=O)n(C)c2cnc3cc(F)c(-c4ccc(OCCCN5CCCCC5)nc4)cc3c21 [AZD1390] (first compound max 10 µM, 7x7, partner max 0.3 µM) | 0.35 | 0.308 | 0.393 | 0.0314 | 0.776 | 0.137 | 0.812 | 0.395 | 0.178 | 0.255 | 0.0121 | 0.41 | 0.0447 | 0.187 | 0.0361 | 0.12 | 0.0304 | 0.0961 | 0.418 | 0.768
CS(=O)(=O)CCNCc1ccc(-c2ccc3ncnc(Nc4ccc(OCc5cccc(F)c5)c(Cl)c4)c3c2)o1 [Lapatinib] + C[C@@H](Oc1cc(-c2cnn(C3CCNCC3)c2)cnc1N)c1c(Cl)ccc(F)c1Cl [Crizotinib] (first compound max 10 µM, 7x7, partner max 10 µM) | 0.942 | 0.965 | 1 | 0.834 | 0.996 | 0.745 | 0.972 | 0.953 | 0.801 | 0.893 | 0.991 | 0.708 | 0.494 | 0.97 | 0.703 | 0.732 | 0.921 | 0.938 | 0.599 | 0.995
CC(=O)c1c(C)c2cnc(Nc3ccc(N4CCNCC4)cn3)nc2n(C2CCCC2)c1=O [Palbociclib] + CC1(C)CCC(CN2CCN(c3ccc(C(=O)NS(=O)(=O)c4ccc(NCC5CCOCC5)c([N+](=O)[O-])c4)c(Oc4cnc5[nH]ccc5c4)c3)CC2)=C(c2ccc(Cl)cc2)C1 [Venetoclax] (first compound max 10 µM, 7x7, partner max 1 µM) | 0.581 | 1 | 1 | 0.422 | 1 | 0.136 | 0.488 | 0.375 | 0.0491 | 0.209 | 0.178 | 0.336 | 0.1 | 0.356 | 0.0364 | 0.71 | 0.211 | 0.572 | 0.279 | 0.0922
CC(=O)c1c(C)c2cnc(Nc3ccc(N4CCNCC4)cn3)nc2n(C2CCCC2)c1=O [Palbociclib] + Cc1c2c(nn1C)CSCc1cc(n(C)n1)CSc1cc(c3ccccc3c1)OCCCc1c(C(=O)O)n(C)c3c-2c(Cl)ccc13 [AZD5991] (first compound max 10 µM, 7x7, partner max 1 µM) | 0.832 | 1 | 1 | 0.443 | 1 | 0.169 | 0.743 | 0.627 | 0.191 | 0.49 | 0.222 | 0.451 | 0.169 | 1 | 0.631 | 0.391 | 0.214 | 0.605 | 0.809 | 0.168
CC(=O)c1c(C)c2cnc(Nc3ccc(N4CCNCC4)cn3)nc2n(C2CCCC2)c1=O [Palbociclib] + Cn1cnc2c(F)c(Nc3ccc(Br)cc3Cl)c(C(=O)NOCCO)cc21 [Selumetinib] (first compound max 10 µM, 7x7, partner max 10 µM) | 0.79 | 0.642 | 1 | 0.402 | 0.982 | 0.157 | 0.721 | 0.37 | 0.179 | 0.264 | 0.43 | 0.451 | 0.145 | 0.79 | 0.119 | 0.0977 | 0.191 | 0.701 | 0.276 | 0.165
